Results as given in US20220079993A1, “NON-NATURALLY OCCURRING THERMOGENIC ADIPOCYTES, METHODS OF MAKING, AND METHODS OF USE THEREOF” (University of Georgia Research Foundation, Inc., priority 2019, published 2022).
Structures can show the parent of a compound that is named as a salt. Where two headings read alike, the source gives them in different places.

How the values were obtained:
beige adipocytes = experiment: Lipolysis validation assays of primary hits at three concentrations; format: cell-based, human; set-up: % of Control (1) / % of Control (2) / % of Control (3) / % of Control (4): unit of the concentration uncertain; details: for activity at 2.2 µM / activity at 6.7 µM / activity at 20 µM / activity at 2200 µM: Homo sapiens, Adipocyte, 24 h; for activity at 2.2 µM: Conc. 2.2 µM; for activity at 6.7 µM: Conc. 6.7 µM; for activity at 20 µM: Conc. 20 µM; for activity at 2200 µM: Conc. 2.2 mM
Experimental: ADSCs were seeded at 5000 cell/cm^2 in 12-well plates, grown for 5 days and then induced to differentiate into GC for 20 days. Prior to the assay, cells were washed in DPBS twice and then incubated with DMEM with 2% fatty-acid free BSA (Santa Crus, sc-500949) and Triascin C (5 μM). Cells were treated with forskolin (20 μM) for indicated time periods and supernatant samples were collected. Lipolysis assay was performed with free glycerol reagent (Sigma, F6428-40ML), according to manufacturer instructions.
Lipolysis assays were performed after 24 hours of drug treatment by measuring free glycerol released in the 384-well format, using the procedure described above. Absorbance for each compound was normalized to untreated control samples for each plate and calculated as a percent of the control. Cut-offs for “activating” and “inhibiting” compounds were set at 2-fold. Validation assays were performed for select compounds at a range of concentration doses.
Next, lipolysis assays were performed for all 111 compounds identified in the primary screen at three different concentrations, of which twenty-four were selected for further analysis based on their newness and/or reproducibility.

UCP1 = experiment: Secondary screen, UCP1 transcript levels by qRT-PCR; format: cell-based, human; details: secondary screen of primary hits
Text: FIG. 8A is a scheme used for high-throughput screening (HTS). FIG. 8B is a scatter-plot of glycerol release for each compound assayed (n=3889) in an HTS screen. Data are shown as the percentage of glycerol released compared to untreated beige adipocytes (% of control). FIG. 8C is a computational analysis of preliminary hits identified in the HTS using BiNChE. FIG. 8D is a plot showing the results of a secondary hit validation of primary compounds performed by evaluating levels of UCP1 transcript by qRT-PCR. Unstimulated beige cells, selected adrenergic agonists, and potential new non-adrenergic beige fat activators identified in the primary screen are shown. Transcript levels were normalized to UCP1 levels in ADSCs, n=3 for each technical 20 replicate. *P<0.0.05, **P<0.01, ***P<0.005. FIGS. 8E and 8F are bar graphs showing secondary screening of known thermogenic activators. Transcript levels of UCP1 were assayed in unstimulated ADSCs and ADSC-derived beige adipocytes and following treatment with forskolin (FSK, 20 μM), isoproterenol (1, 10 μM) (8E) and Mirabegron (1, 10 and 25 μM) (8F). Transcript levels were determined by qRT-PCR. n=3 for each independent replicate. Data are mean+/−standard deviation. *P<0.0.05, **P<0.01.
Cells were washed with DPBS, lysed directly on the plate and used for RNA isolation with the E.Z.N.A Total RNA Kit (Omega, R6834-02) according to manufacturer instructions. RNA quantitation was performed with the Biotek Synergy 2 plate reader and cDNA was synthesized using 1 ug of RNA with the iScript cDNA Synthesis Kit (Bio-Rad, 1708841). The qRT-PCR was performed on a ViiA7 Real-Time PCR System (ThermoFisher) using a TaqMan Universal PCR Master Mix (ThermoFisher, 4324020) according to manufacturer instructions with the following TaqMan primer/probe sets (UCP1, Hs01084772_m1), DIO2, Hs00988260_ml, 18S rRNA, Hs03928985_g1). Each assay was performed in triplicate and normalized to 18S rRNA and graphed as mean+/−standard deviation.
To determine if hits identified in the first-round screen activated the thermogenic program, UCP1 transcript levels were used as a readout. This secondary screen incorporated adrenergic agonists, such as Mirabegron, isoproterenol and phenylephrine, and eighteen additional compounds with no reported function in thermogenic regulation (FIG. 8D, 8E, 8F). 18/25 (72%) of the lipolysis-activating compounds identified in the primary screen also activate the thermogenic program through UCP1. Twelve of these compounds have no reported adrenergic agonist activity and could potentially operate through different signaling mechanisms (FIG. 8D and Table 9).

Structure (SMILES) | activity at 2.2 µM (beige adipocytes; read-out: % of Control (2)) | activity at 2.2 µM (beige adipocytes; read-out: % of Control (4)) | activity at 6.7 µM (beige adipocytes; read-out: % of Control (1)) | activity at 6.7 µM (beige adipocytes; read-out: % of Control (2)) | activity at 6.7 µM (beige adipocytes; read-out: % of Control (3)) | activity at 6.7 µM (beige adipocytes; read-out: % of Control (4)) | activity at 20 µM (beige adipocytes; read-out: % of Control (1)) | activity at 20 µM (beige adipocytes; read-out: % of Control (2)) | activity at 20 µM (beige adipocytes; read-out: % of Control (3)) | activity at 20 µM (beige adipocytes; read-out: % of Control (4)) | activity at 2200 µM (beige adipocytes; read-out: % of Control (1)) | activity at 2200 µM (beige adipocytes; read-out: % of Control (3)) | Activation of the thermogenic program (UCP1 transcript), in words (UCP1) | % of Control (1) (beige adipocytes; Conc. 2.2 (unit uncertain)) | % of Control (2) (beige adipocytes; Conc. 2.2 (unit uncertain)) | % of Control (3) (beige adipocytes; Conc. 2.2 (unit uncertain)) | % of Control (4) (beige adipocytes; Conc. 2.2 (unit uncertain)) | % of Control (1) (beige adipocytes; Conc. 6.7 (unit uncertain)) | % of Control (2) (beige adipocytes; Conc. 6.7 (unit uncertain)) | % of Control (3) (beige adipocytes; Conc. 6.7 (unit uncertain)) | also measured
COc1cc2c(cc1OC)-c1c/c(=N\c3c(C)cc(C)cc3C)n(C)c(=O)n1CC2 [Trequinsin HCl] | 251% | 244% | 271% | 264% | 232% | 215% | 284% | 292% | 256% | 248% | 240% | 188% | efficacy in beige cell activation | – | – | – | – | – | – | – | –
Cc1ccccc1N1CCN(S(=O)(=O)C[C@]23CC[C@H](C[C@@H]2NC(=O)[C@@H](N)CCS(C)(=O)=O)C3(C)C)CC1 [L-368, 899] | – | – | – | – | – | – | – | – | – | – | – | – | activators in both rounds of screening | 196.9 % of Control | 128 % of Control | 118.57 % of Control | 91.72 % of Control | 185.48 % of Control | 151.88 % of Control | 130.11 % of Control | % of Control (4) (beige adipocytes; Conc. 6.7 (unit uncertain)): 148.51 % of Control; % of Control (1) (beige adipocytes; Conc. 20 (unit uncertain)): 143.81 % of Control; % of Control (2) (beige adipocytes; Conc. 20 (unit uncertain)): 179.29 % of Control; % of Control (3) (beige adipocytes; Conc. 20 (unit uncertain)): 192.97 % of Control; % of Control (4) (beige adipocytes; Conc. 20 (unit uncertain)): 166.21 % of Control
O=C1CN2Cc3c(ccc(Cl)c3Cl)N=C2N1 [Anagrelide HCl] | 146% | 144% | 195% | 268% | 191% | 156% | 196% | 183% | 212% | 161% | 125% | 124% | efficacy in beige cell activation | – | – | – | – | – | – | – | –
COc1ccc(-c2cc3c(C)nc(N)nc3n([C@H]3CC[C@H](OCCO)CC3)c2=O)cn1 [PF-04691502] | – | – | – | – | – | – | – | – | – | – | – | – | activators in both rounds of screening | 171.55 % of Control | 138.35 % of Control | 232.86 % of Control | 105.98 % of Control | 257.98 % of Control | 216.59 % of Control | 225.05 % of Control | % of Control (4) (beige adipocytes; Conc. 6.7 (unit uncertain)): 155.98 % of Control; % of Control (1) (beige adipocytes; Conc. 20 (unit uncertain)): 304.52 % of Control; % of Control (2) (beige adipocytes; Conc. 20 (unit uncertain)): 224.71 % of Control; % of Control (3) (beige adipocytes; Conc. 20 (unit uncertain)): 171.76 % of Control; % of Control (4) (beige adipocytes; Conc. 20 (unit uncertain)): 302.07 % of Control
Cc1ccc([N+](=O)[O-])cc1S(=O)(=O)N(C)/N=C/c1cnc2ccc(Br)cn12 [PIK-75] | – | – | – | – | – | – | – | – | – | – | – | – | activators in both rounds of screening | 197.74 % of Control | 134.71 % of Control | 183.08 % of Control | 136.9 % of Control | 280.95 % of Control | 197.53 % of Control | 165.05 % of Control | % of Control (4) (beige adipocytes; Conc. 6.7 (unit uncertain)): 207.93 % of Control; % of Control (1) (beige adipocytes; Conc. 20 (unit uncertain)): 158.45 % of Control; % of Control (2) (beige adipocytes; Conc. 20 (unit uncertain)): 244.82 % of Control; % of Control (3) (beige adipocytes; Conc. 20 (unit uncertain)): 198.79 % of Control; % of Control (4) (beige adipocytes; Conc. 20 (unit uncertain)): 233.79 % of Control
Cc1cc(C)c(/C=C2\C(=O)Nc3ccccc32)[nH]1 [SU 5416] | 379% | 232% | 349% | 366% | 251% | 238% | 283% | 267% | 233% | 246% | 281% | 214% | activators in both rounds of screening | – | – | – | – | – | – | – | –
